What was measured:
Human κ-Opioid (KOP) = biological target: T1, Human κ-Opioid (KOP) (Homo sapiens, UniProt P41145); assay: Radioligand binding, human κ-opioid (KOP) membranes, filtration, [3H]-Diprenorphine; conditions: compound at 10 μM; for A2 radioligand binding inhibition: human κ-opioid (KOP) membranes
T1 construct: purchased Perkin Elmer Biosignal
How it was run: (§1)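 Filtration binding on cloned human receptor membranes (1 Unit/well), [125I]-Substance P for NK1 and [3H]-Diprenorphine for KOP, 1 h at room temperature. Filters PEI-presoaked, washed with cold 50 mM Tris-HCl pH 7.4, counted by scintillation; percent inhibition calculated, reference ligand defining non-specific binding.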

Human Melanocortin (MC4) = biological target: T2, Human Melanocortin (MC4) (Homo sapiens, UniProt P32245); assay: Radioligand binding, human melanocortin MC4 membranes, FlashPlate, [125I]-NDP-αMSH; conditions: compound at 10 μM; for A4 radioligand binding inhibition: human melanocortin MC4 membranes
T2 construct: purchased Perkin Elmer Biosignal
How it was run: (§2)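 Cloned human receptor membranes were coated onto FlashPlate wells and incubated with radioligand and compound (added from a 0.5 mM DMSO daughter plate) for 1 hour at room temperature in the dark. Scintillation counting gave percent inhibition, with DMSO defining total and reference ligand defining non-specific binding.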

Human neurokinin (NK1) = biological target: T3, Human neurokinin (NK1) (Homo sapiens, UniProt P25103); assay: Radioligand binding, human neurokinin NK1 membranes, filtration, [125I]-Substance P; conditions: compound at 10 μM; for A8 radioligand binding inhibition: human neurokinin NK1 membranes
T3 construct: purchased Perkin Elmer Biosignal
How it was run: as §1

Human opioid (ORL1) = biological target: T4, Human opioid (ORL1) (Homo sapiens, UniProt P41146); assay: Radioligand binding, human opioid ORL1 membranes, FlashPlate, [125I]-Nociceptin; conditions: compound at 10 μM; for A10 radioligand binding inhibition: human ORL1 membranes
T4 construct: purchased Perkin Elmer Biosignal
How it was run: as §2

Human Melanocortin (MC3) = biological target: T5, Human Melanocortin (MC3) (Homo sapiens, UniProt P41968); assay: Radioligand binding, human melanocortin MC3 membranes, FlashPlate, [125I]-NDP-αMSH; conditions: compound at 10 μM; for A3 radioligand binding inhibition: human melanocortin MC3 membranes
T5 construct: purchased Perkin Elmer Biosignal
How it was run: as §2

Human μ-opioid (MOP) = biological target: T6, Human μ-opioid (MOP) (Homo sapiens, UniProt P35372); assay: Radioligand binding, human μ-opioid (MOP) membranes, FlashPlate, [3H]-Naloxone; conditions: compound at 10 μM; for A7 radioligand binding inhibition: human μ-opioid (MOP) membranes
T6 construct: purchased Perkin Elmer Biosignal
How it was run: as §2

Mouse urotensin (mUR2) = biological target: T7, Mouse urotensin (mUR2) (Mus musculus, UniProt Q8VIH9); assay: Radioligand binding, mouse urotensin mUR2 membranes, FlashPlate, [125I]-Urotensin II; conditions: compound at 10 μM; for A11 radioligand binding inhibition: mouse urotensin mUR2 membranes
T7 construct: purchased Perkin Elmer Biosignal
T7 sequence (Q8VIH9 1-385): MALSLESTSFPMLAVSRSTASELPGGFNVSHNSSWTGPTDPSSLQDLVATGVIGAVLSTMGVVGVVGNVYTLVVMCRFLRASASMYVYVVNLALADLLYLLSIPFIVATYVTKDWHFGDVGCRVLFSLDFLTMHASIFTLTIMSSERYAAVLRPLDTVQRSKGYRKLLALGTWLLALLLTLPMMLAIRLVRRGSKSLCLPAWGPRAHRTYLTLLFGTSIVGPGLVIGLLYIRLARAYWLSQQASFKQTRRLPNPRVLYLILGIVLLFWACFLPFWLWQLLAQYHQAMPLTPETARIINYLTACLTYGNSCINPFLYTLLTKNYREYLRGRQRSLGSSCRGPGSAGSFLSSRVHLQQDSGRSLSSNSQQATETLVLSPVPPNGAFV
How it was run: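 Cloned mouse urotensin (mUR2) receptor membranes from Perkin Elmer Biosignal were immobilized in FlashPlate microplates using a proprietary coating. Each well got 19.5 μl buffer, then 0.5 μl of DMSO, reference ligand, or compound. Adding 5 μl of [125I]-Urotensin II, diluted to 5× final concentration in binding buffer, started binding. Plates were sealed with TopSeal-A and incubated 1 hour at room temperature in the dark. Wells were counted for 30 seconds each on a TopCount after a 60-second delay, and percentage inhibition was calculated.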

Human δ-opioid (DOP) = biological target: T8, Human δ-opioid (DOP) (Homo sapiens, UniProt P41143); assay: Radioligand binding, human δ-opioid (DOP) membranes, FlashPlate, [3H]-Bremazocine; conditions: compound at 10 μM; for A1 radioligand binding inhibition: human δ-opioid (DOP) membranes
T8 construct: purchased Perkin Elmer Biosignal
How it was run: as §2

[1] = biological target: T9, Human melanin-concentrating hormone (MCH1) (Homo sapiens, UniProt Q99705); assay: Radioligand binding, human melanin-concentrating hormone MCH1 membranes, FlashPlate, [125I]-S36057; conditions: compound at 10 μM; for A6 radioligand binding inhibition: human MCH1 membranes
T9 construct: purchased Perkin Elmer Biosignal
How it was run: as §2

Human melanocortin (MC5) = biological target: T10, Human melanocortin (MC5) (Homo sapiens, UniProt P33032); assay: Radioligand binding, human melanocortin MC5 membranes, FlashPlate, [125I]-NDP-αMSH; conditions: compound at 10 μM; for A5 radioligand binding inhibition: human melanocortin MC5 membranes
T10 construct: purchased Perkin Elmer Biosignal
How it was run: as §2

[2] = biological target: T11, Human neuropeptide Y (NPY-Y1) (Homo sapiens, UniProt P25929); assay: Radioligand binding, human neuropeptide Y NPY-Y1 membranes, FlashPlate, [125I]-PYY; conditions: compound at 10 μM; for A9 radioligand binding inhibition: human NPY-Y1 membranes
T11 construct: purchased Perkin Elmer Biosignal
T11 sequence (P25929 1-384): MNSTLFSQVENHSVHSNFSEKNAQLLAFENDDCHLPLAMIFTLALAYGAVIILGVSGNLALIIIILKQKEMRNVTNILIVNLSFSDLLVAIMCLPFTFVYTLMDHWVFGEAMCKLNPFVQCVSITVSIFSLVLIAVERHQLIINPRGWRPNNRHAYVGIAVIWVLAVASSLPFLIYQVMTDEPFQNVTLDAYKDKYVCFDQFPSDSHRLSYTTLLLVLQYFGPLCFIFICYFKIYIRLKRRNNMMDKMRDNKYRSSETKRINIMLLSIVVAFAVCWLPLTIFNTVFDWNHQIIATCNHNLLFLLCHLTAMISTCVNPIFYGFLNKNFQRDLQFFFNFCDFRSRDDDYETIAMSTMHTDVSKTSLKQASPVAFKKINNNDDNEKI
How it was run: as §2

T9 sequence (Q99705 whole entry): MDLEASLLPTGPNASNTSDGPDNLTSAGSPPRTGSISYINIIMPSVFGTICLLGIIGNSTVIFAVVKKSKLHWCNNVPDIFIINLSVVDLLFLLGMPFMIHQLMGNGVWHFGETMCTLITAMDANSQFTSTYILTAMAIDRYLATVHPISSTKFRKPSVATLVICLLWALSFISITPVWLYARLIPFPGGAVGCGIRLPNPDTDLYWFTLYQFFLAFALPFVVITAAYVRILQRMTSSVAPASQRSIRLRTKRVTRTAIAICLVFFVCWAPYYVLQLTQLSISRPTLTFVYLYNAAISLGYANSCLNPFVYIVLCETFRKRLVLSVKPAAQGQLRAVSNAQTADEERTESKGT
T10 sequence (P33032 whole entry): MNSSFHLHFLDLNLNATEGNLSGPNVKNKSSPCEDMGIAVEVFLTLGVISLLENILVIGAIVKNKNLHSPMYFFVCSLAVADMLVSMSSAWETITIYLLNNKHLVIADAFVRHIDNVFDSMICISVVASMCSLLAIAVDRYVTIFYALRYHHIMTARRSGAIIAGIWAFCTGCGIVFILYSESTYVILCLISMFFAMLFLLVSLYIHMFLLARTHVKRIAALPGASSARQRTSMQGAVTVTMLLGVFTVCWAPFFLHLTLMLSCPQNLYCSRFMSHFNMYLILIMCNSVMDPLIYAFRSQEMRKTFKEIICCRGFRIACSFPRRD
T6 sequence (P35372 whole entry): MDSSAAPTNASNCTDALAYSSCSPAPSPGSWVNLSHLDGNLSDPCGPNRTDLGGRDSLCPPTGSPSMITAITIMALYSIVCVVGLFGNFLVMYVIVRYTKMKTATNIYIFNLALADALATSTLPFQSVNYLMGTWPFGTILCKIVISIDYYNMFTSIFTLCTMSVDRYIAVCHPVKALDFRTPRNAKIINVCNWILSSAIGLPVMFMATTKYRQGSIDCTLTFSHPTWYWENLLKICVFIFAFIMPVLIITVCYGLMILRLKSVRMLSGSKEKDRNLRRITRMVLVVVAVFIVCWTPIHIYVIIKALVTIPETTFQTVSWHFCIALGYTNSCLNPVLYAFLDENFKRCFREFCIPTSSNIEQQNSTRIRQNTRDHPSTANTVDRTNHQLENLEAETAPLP
T5 sequence (P41968 whole entry): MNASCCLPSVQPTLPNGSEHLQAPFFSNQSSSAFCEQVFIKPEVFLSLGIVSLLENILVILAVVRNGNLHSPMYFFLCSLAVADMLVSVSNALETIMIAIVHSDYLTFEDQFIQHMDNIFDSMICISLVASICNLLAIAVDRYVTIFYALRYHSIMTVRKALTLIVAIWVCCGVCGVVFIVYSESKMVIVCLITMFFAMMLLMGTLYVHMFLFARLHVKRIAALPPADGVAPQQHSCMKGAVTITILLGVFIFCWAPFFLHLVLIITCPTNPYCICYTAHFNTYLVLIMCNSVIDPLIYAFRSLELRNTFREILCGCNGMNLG
T1 sequence (P41145 whole entry): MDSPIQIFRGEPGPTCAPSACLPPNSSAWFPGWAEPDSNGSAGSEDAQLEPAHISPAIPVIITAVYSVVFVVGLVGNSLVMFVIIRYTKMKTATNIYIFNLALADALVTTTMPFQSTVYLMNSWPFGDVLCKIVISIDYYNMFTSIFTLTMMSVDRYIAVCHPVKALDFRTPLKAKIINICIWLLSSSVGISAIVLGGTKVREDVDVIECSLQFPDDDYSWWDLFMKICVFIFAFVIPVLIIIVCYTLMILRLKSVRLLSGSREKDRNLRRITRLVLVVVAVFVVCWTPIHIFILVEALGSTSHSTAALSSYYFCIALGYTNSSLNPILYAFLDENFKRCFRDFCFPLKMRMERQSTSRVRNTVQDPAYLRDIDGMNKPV
T2 sequence (P32245 whole entry): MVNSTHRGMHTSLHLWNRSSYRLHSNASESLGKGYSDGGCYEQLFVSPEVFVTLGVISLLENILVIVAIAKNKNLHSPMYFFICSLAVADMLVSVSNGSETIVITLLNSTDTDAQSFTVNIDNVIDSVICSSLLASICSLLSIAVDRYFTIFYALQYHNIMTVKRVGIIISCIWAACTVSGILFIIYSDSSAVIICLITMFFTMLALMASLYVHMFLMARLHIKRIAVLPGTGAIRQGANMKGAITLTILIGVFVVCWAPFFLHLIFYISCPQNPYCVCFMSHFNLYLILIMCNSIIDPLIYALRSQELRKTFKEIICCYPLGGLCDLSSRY
T4 sequence (P41146 whole entry): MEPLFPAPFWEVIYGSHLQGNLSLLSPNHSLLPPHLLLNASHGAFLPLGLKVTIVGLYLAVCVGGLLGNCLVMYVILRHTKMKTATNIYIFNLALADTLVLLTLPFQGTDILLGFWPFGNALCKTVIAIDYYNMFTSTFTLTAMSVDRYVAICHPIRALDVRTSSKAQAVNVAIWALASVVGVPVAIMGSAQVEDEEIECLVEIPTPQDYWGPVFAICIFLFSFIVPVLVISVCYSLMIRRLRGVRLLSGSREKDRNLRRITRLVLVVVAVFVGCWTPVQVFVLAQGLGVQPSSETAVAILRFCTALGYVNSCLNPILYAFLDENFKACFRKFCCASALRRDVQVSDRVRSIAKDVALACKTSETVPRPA
T8 sequence (P41143 whole entry): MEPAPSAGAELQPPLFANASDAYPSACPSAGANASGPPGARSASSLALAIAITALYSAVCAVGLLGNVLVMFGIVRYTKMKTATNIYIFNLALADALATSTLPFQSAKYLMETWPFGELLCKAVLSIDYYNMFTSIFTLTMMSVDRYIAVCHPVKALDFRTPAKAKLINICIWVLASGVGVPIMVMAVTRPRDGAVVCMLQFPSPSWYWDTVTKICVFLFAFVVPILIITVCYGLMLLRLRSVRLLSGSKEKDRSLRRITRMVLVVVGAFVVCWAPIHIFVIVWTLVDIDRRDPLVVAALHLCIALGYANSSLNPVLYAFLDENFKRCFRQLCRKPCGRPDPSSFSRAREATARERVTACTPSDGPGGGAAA
T3 sequence (P25103 whole entry): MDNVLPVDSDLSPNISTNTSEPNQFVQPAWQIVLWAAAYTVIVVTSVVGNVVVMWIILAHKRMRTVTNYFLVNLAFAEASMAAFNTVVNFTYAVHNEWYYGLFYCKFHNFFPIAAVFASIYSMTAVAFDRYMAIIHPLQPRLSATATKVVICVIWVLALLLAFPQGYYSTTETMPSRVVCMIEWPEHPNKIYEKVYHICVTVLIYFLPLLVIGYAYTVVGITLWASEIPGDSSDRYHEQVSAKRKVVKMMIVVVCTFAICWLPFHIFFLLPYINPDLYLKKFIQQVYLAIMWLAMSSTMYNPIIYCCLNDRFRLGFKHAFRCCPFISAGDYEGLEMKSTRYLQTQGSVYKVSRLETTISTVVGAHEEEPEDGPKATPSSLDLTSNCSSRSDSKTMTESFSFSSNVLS

SMILES | A2 radioligand binding inhibition (Human κ-Opioid (KOP)) | A4 radioligand binding inhibition (Human Melanocortin (MC4)) | A8 radioligand binding inhibition (Human neurokinin (NK1)) | A10 radioligand binding inhibition (Human opioid (ORL1)) | A3 radioligand binding inhibition (Human Melanocortin (MC3)) | A7 radioligand binding inhibition (Human μ-opioid (MOP)) | A11 radioligand binding inhibition (Mouse urotensin (mUR2)) | A1 radioligand binding inhibition (Human δ-opioid (DOP)) | A6 radioligand binding inhibition [1] | A5 radioligand binding inhibition (Human melanocortin (MC5)) | A9 radioligand binding inhibition [2] | A2 radioligand binding, percentage inhibition (Human κ-Opioid (KOP); [3H]-Diprenorphine) | A4 radioligand binding, percentage inhibition (Human Melanocortin (MC4); [125I]-NDP-αMSH) | A8 radioligand binding, percentage inhibition (Human neurokinin (NK1); [125I]-Substance P) | A10 radioligand binding, percentage inhibition (Human opioid (ORL1); [125I]-Nociceptin) | A3 radioligand binding, percentage inhibition (Human Melanocortin (MC3); [125I]-NDP-αMSH) | A7 radioligand binding, percentage inhibition (Human μ-opioid (MOP); [3H]-Naloxone) | A11 radioligand binding, percentage inhibition (Mouse urotensin (mUR2); [125I]-Urotensin II) | A1 radioligand binding, percentage inhibition (Human δ-opioid (DOP); [3H]-Bremazocine) | A6 radioligand binding, percentage inhibition ([1]; [125I]-S36057) | also measured
CO[C@H]1[C@H](O)[C@@H](COCc2ccc(Cl)cc2)OC(OCc2ccc3ccccc3c2)[C@@H]1NC(=O)CCNC(=N)N (stereo partly shown) [compound 79] | − (“−” indicates less than 50% inhibition at 10 μM) | + (“+” indicates greater than 50% inhibition at 10 μM) | + (“+” indicates greater than 50% inhibition at 10 μM) | − (“−” indicates less than 50% inhibition at 10 μM) | − (“−” indicates less than 50% inhibition at 10 μM) | + (“+” indicates greater than 50% inhibition at 10 μM) | − (“−” indicates less than 50% inhibition at 10 μM) | − (“−” indicates less than 50% inhibition at 10 μM) | − (“−” indicates less than 50% inhibition at 10 μM) | + (“+” indicates greater than 50% inhibition at 10 μM) | − (“−” indicates less than 50% inhibition at 10 μM) |  |  |  |  |  |  |  |  |  | 
COC[C@H]1OC(OCc2ccc(-c3ccccc3)cc2)[C@H](NC(=O)CNC(=N)N)[C@@H](OCc2cccc(O)c2)[C@@H]1O (stereo partly shown) [compound 129] |  |  |  |  |  |  |  |  |  |  |  | − (“−” indicates less than 50% inhibition at 10 μM) | − (“−” indicates less than 50% inhibition at 10 μM) | − (“−” indicates less than 50% inhibition at 10 μM) | − (“−” indicates less than 50% inhibition at 10 μM) | − (“−” indicates less than 50% inhibition at 10 μM) | + (“+” indicates greater than 50% inhibition at 10 μM) | − (“−” indicates less than 50% inhibition at 10 μM) | − (“−” indicates less than 50% inhibition at 10 μM) | − (“−” indicates less than 50% inhibition at 10 μM) | A5 radioligand binding, percentage inhibition (Human melanocortin (MC5); [125I]-NDP-αMSH): − (“−” indicates less than 50% inhibition at 10 μM); A9 radioligand binding, percentage inhibition ([2]; [125I]-PYY): − (“−” indicates less than 50% inhibition at 10 μM)
CO[C@H]1[C@H](O)[C@@H](COCc2ccc3ccccc3c2)OC(OCc2ccc(-c3ccccc3)cc2)[C@@H]1NC(=O)CCCNC(=N)N (stereo partly shown) [compound 57] | + (“+” indicates greater than 50% inhibition at 10 μM) | + (“+” indicates greater than 50% inhibition at 10 μM) | + (“+” indicates greater than 50% inhibition at 10 μM) | + (“+” indicates greater than 50% inhibition at 10 μM) | + (“+” indicates greater than 50% inhibition at 10 μM) | + (“+” indicates greater than 50% inhibition at 10 μM) | − (“−” indicates less than 50% inhibition at 10 μM) | − (“−” indicates less than 50% inhibition at 10 μM) | − (“−” indicates less than 50% inhibition at 10 μM) | + (“+” indicates greater than 50% inhibition at 10 μM) | − (“−” indicates less than 50% inhibition at 10 μM) |  |  |  |  |  |  |  |  |  | 
NCCCC(=O)NC1C(OCc2ccc(Cl)cc2)OC(COCc2ccccc2)C(O)C1OCc1ccc2ccccc2c1 (single isomer, unassigned) [compound 497] |  |  |  |  |  |  |  |  |  |  |  |  |  |  |  |  |  |  |  |  | A2: inhibition of radioligand binding, human κ-opioid (KOP) (Human κ-Opioid (KOP); [3H]-Diprenorphine): − (“−” indicates less than 50% inhibition at 10 μM); A4: inhibition of radioligand binding, human melanocortin (MC4) (Human Melanocortin (MC4); [125I]-NDP-αMSH, 10 µM): − (“−” indicates less than 50% inhibition at 10 μM); A8: inhibition of radioligand binding, human neurokinin (NK1) (Human neurokinin (NK1); [125I]-Substance P): + (“+” indicates greater than 50% inhibition at 10 μM); A10: inhibition of radioligand binding, human opioid (ORL1) (Human opioid (ORL1); [125I]-Nociceptin, 10 µM): − (“−” indicates less than 50% inhibition at 10 μM); A3: inhibition of radioligand binding, human melanocortin (MC3) (Human Melanocortin (MC3); [125I]-NDP-αMSH): − (“−” indicates less than 50% inhibition at 10 μM); A7: inhibition of radioligand binding, human μ-opioid (MOP) (Human μ-opioid (MOP); [3H]-Naloxone): − (“−” indicates less than 50% inhibition at 10 μM); A11: inhibition of radioligand binding, mouse urotensin (mUR2) (Mouse urotensin (mUR2); [125I]-Urotensin II): − (“−” indicates less than 50% inhibition at 10 μM); A1: inhibition of radioligand binding, human δ-opioid (DOP) (Human δ-opioid (DOP); [3H]-Bremazocine): − (“−” indicates less than 50% inhibition at 10 μM); A6: inhibition of radioligand binding, human melanin-concentrating hormone (MCH1) ([1]; [125I]-S36057): − (“−” indicates less than 50% inhibition at 10 μM); A5: inhibition of radioligand binding, human melanocortin (MC5) (Human melanocortin (MC5); [125I]-NDP-αMSH): + (“+” indicates greater than 50% inhibition at 10 μM); A9: inhibition of radioligand binding, human neuropeptide Y (NPY-Y1) ([2]; [125I]-PYY): − (“−” indicates less than 50% inhibition at 10 μM)
CO[C@H]1[C@H](O)[C@@H](COCc2ccccc2)OC(OCCc2ccccc2)[C@@H]1NC(=O)CCNC(=N)N (stereo partly shown) [compound 117] |  |  |  |  |  |  |  |  |  |  |  | + (“+” indicates greater than 50% inhibition at 10 μM) | − (“−” indicates less than 50% inhibition at 10 μM) | + (“+” indicates greater than 50% inhibition at 10 μM) | − (“−” indicates less than 50% inhibition at 10 μM) | − (“−” indicates less than 50% inhibition at 10 μM) | − (“−” indicates less than 50% inhibition at 10 μM) | − (“−” indicates less than 50% inhibition at 10 μM) | − (“−” indicates less than 50% inhibition at 10 μM) | − (“−” indicates less than 50% inhibition at 10 μM) | A5 radioligand binding, percentage inhibition (Human melanocortin (MC5); [125I]-NDP-αMSH): − (“−” indicates less than 50% inhibition at 10 μM); A9 radioligand binding, percentage inhibition ([2]; [125I]-PYY): − (“−” indicates less than 50% inhibition at 10 μM)

Source: patent publication US20080009418A1, “Selective Inhibitors” (Alchemia LTD., priority 2004, published 2008)
